From US12150995B2, “IRAK degraders and uses thereof” (Kymera Therapeutics, Inc., priority 2020, dated 2024)

target: T1, IRAK4 (Homo sapiens, UniProt Q9NWZ3); experiment: IRAK4 MSD Degradation in OCI-LY10; assay type: cell-based; conditions: OCI-LY10 cells, Meso Scale Discovery, incubated 4 to 24 hours
T1 construct: endogenous in cells; host or cells: OCI-LY10
T1 sequence (Q9NWZ3 1-460): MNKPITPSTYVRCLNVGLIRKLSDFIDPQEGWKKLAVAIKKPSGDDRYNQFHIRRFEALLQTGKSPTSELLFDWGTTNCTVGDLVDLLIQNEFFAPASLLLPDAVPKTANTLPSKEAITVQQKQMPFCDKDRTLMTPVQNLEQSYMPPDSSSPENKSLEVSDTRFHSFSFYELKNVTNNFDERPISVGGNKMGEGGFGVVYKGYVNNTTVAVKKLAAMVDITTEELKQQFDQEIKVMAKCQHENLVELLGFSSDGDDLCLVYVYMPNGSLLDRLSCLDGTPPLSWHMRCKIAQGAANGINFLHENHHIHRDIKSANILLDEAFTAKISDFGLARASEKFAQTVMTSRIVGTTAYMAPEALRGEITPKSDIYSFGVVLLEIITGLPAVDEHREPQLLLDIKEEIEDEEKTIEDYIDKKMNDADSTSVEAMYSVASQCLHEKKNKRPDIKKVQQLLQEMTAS
Method in brief: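 IRAK4 degradation was quantified by Meso Scale electrochemiluminescence (anti-IRAK4 capture and detection antibodies) in lysates of treated OCI-LY10 cells. Compounds were dosed at 8 concentrations (1:3 dilutions, top 1 to 10 μM) for 4 to 24 h; DC50 derived by three-parameter logistic fitting.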

Compound | DC50 [nM]
CC(C)(O)c1cc2nc([C@H]3CC[C@H](C(=O)N4CCN(CCCNc5cccc6c5C(=O)N(C5CCC(=O)NC5=O)C6=O)CC4)CC3)sc2cc1NC(=O)c1cncc(C#N)c1 (some centres unmarked) [I-451] | 50 to 100
COc1cc2nc([C@H]3CC[C@H](CN(C)CCCCNc4cccc5c4C(=O)N(C4CCC(=O)NC4=O)C5=O)CC3)sc2cc1NC(=O)c1cncc(C#N)c1 (some centres unmarked) [I-456] | > 200
CC(C)(O)c1cc2nc([C@H]3CC[C@H](C(=O)N4CCC5(CC4)CC(CCNc4cccc6c4C(=O)N(C4CCC(=O)NC4=O)C6=O)C5)CC3)sc2cc1NC(=O)c1cccc(C(F)F)n1 (some centres unmarked) [I-457] | 100 to 200
COc1cc2nc([C@H]3CC[C@H](CN(C)CCCNc4cccc5c4C(=O)N(C4CCC(=O)NC4=O)C5=O)CC3)sc2cc1NC(=O)c1cncc(C#N)c1 (some centres unmarked) [I-458] | > 200
COc1cc2nc([C@H]3CC[C@H](CN(C)CCCNc4cccc5c4C(=O)N(C4CCC(=O)NC4=O)C5=O)CC3)sc2cc1NC(=O)c1cncc(C)c1 (some centres unmarked) [I-459] | > 200
COc1cc2nc([C@H]3CC[C@H](CN(C)CCCCNc4cccc5c4C(=O)N(C4CCC(=O)NC4=O)C5=O)CC3)sc2cc1NC(=O)c1cncc(C)c1 (some centres unmarked) [I-460] | > 200
CC(C)(O)c1cc2nn(-c3ccc(CN4CCC5(CCC(Nc6cccc7c6C(=O)N(C6CCC(=O)NC6=O)C7=O)CC5)CC4)cc3)cc2cc1NC(=O)c1cccc(C(F)(F)F)n1 (centres unmarked) [I-462] | 100 to 200
CN(Cc1ccc(-n2cc3cc(NC(=O)c4cccc(C(F)(F)F)n4)c(C(C)(C)O)cc3n2)cc1)[C@H]1CC[C@H](Nc2cccc3c2C(=O)N(C2CCC(=O)NC2=O)C3=O)CC1 (some centres unmarked) [I-463] | 10 to 50
CN(CCCO[C@H]1C[C@@H](Nc2cccc3c2C(=O)N(C2CCC(=O)NC2=O)C3=O)C1)C[C@H]1CC[C@H](n2cc3cc(NC(=O)c4cccc(C(F)(F)F)n4)c(C(C)(C)O)cc3n2)CC1 (some centres unmarked) [I-464] | 10 to 50
COc1cc2nc([C@H]3CC[C@H](C(=O)N4CCN(CCCNc5cccc6c5C(=O)N(C5CCC(=O)NC5=O)C6=O)CC4)CC3)sc2cc1NC(=O)c1cccc(C(F)(F)F)n1 (some centres unmarked) [I-466] | 50 to 100

The next lines start with the values.

DC50 [nM] | Compound
10 to 50 | Cc1cccc(C(=O)Nc2cc3sc([C@H]4CC[C@H](CN5CCN(CCCNc6cccc7c6C(=O)N(C6CCC(=O)NC6=O)C7=O)[C@H](C)C5)CC4)nc3cc2C(C)(C)O)n1 (some centres unmarked) [I-452]
100 to 200 | CC(C)(O)c1cc2nc([C@H]3CC[C@H](CN4CCN(CCNc5cccc6c5C(=O)N(C5CCC(=O)NC5=O)C6=O)CC4)CC3)sc2cc1NC(=O)c1cncc(C#N)c1 (some centres unmarked) [I-453]
> 200 | CC(C)(O)c1cc2nc([C@H]3CC[C@H](CN4CCO[C@@H](CCCNc5cccc6c5C(=O)N(C5CCC(=O)NC5=O)C6=O)C4)CC3)sc2cc1NC(=O)c1cncc(C#N)c1 (some centres unmarked) [I-454]
> 200 | CC(C)(O)c1cc2nc([C@H]3CC[C@H](CN4CCO[C@H](CCCNc5cccc6c5C(=O)N(C5CCC(=O)NC5=O)C6=O)C4)CC3)sc2cc1NC(=O)c1cncc(C#N)c1 (some centres unmarked) [I-455]
10 to 50 | CC(C)(O)c1cc2nc([C@H]3CC[C@H](CN4CC5(CC(CCNc6cccc7c6C(=O)N(C6CCC(=O)NC6=O)C7=O)C5)C4)CC3)sc2cc1NC(=O)c1cncc(C#N)c1 (some centres unmarked) [I-461]
< 10 | Cc1cccc(C(=O)Nc2cc3sc([C@H]4CC[C@H](C(=O)N5CCN(CCCNc6cccc7c6C(=O)N(C6CCC(=O)NC6=O)C7=O)CC5)CC4)nc3cc2C(C)(C)O)n1 (some centres unmarked) [I-465]
10 to 50 | Cc1cccc(C(=O)Nc2cc3sc([C@H]4CC[C@H](CN5CCN(CCNc6cccc7c6C(=O)N(C6CCC(=O)NC6=O)C7=O)[C@@H](C)C5)CC4)nc3cc2C(C)(C)O)n1 (some centres unmarked) [I-467]
10 to 50 | Cc1cccc(C(=O)Nc2cc3sc([C@H]4CC[C@H](C(=O)N5CC6(CCN(CCNc7cccc8c7C(=O)N(C7CCC(=O)NC7=O)C8=O)CC6)C5)CC4)nc3cc2C(C)(C)O)n1 (some centres unmarked) [I-468]
100 to 200 | Cc1cccc(C(=O)Nc2cc3sc([C@H]4CC[C@H](C(=O)N5CC6(CC(CCNc7cccc8c7C(=O)N(C7CCC(=O)NC7=O)C8=O)C6)C5)CC4)nc3cc2C(C)(C)O)n1 (some centres unmarked) [I-469]
10 to 50 | Cc1cccc(C(=O)Nc2cc3sc([C@H]4CC[C@H](CN5CCN(CCNc6cccc7c6C(=O)N(C6CCC(=O)NC6=O)C7=O)[C@H](C)C5)CC4)nc3cc2C(C)(C)O)n1 (some centres unmarked) [I-470]
